Numbers after ± are expanded uncertainties.
Legend:
[1] = molar enthalpy of vaporization or sublimation; conditions: 298.15 K, Static calorimetry
[2] = Crystal; DTA
[3] = Molar enthalpy of transition or fusion; conditions: Crystal; DSC

| molar enthalpy ([1]; Liquid) | molar enthalpy ([1]; Crystal) | Normal melting temperature [2] | Molar enthalpy of transition or fusion [3] | Compound |
| --- | --- | --- | --- | --- |
| 14.9 ± 0.454 kcal/mol | – | – | – | N[C@H]1CC[C@@H](N)CC1 [cis-1,4-cyclohexanediamine] |
| – | 25.1 ± 0.382 kcal/mol | 69.0 ± 0.5 °C | 6.45 ± 0.167 kcal/mol | N[C@H]1CC[C@H](N)CC1 [trans-1,4-cyclohexanediamine] |
